Structures are written as SMILES. ≈ marks a conversion by molar mass, not a printed value. Bounds are passed on as bounds.

The results in this text go back to article PMC10099666, “Structure Elucidation, Total Synthesis, Antibacterial In Vivo Efficacy and Biosynthesis Proposal of Myxobacterial Corramycin” (Angewandte Chemie (International Ed. in English), 2022).

For assay [1], the system named is E. coli isolate 3 (OXA-30). As to the kind of experiment: Cross-resistance MIC assay, clinical isolate. The following applies: E. coli isolate 3, OXA-30, resistance ESBL-CP; protocol as section 5 (CAMHB; there µg mL-1); unit not given in Table S5. Format: cell-based. Set-up: unit not given beside the values. As for the experimental part:
(§1) 5. Determination of the minimal inhibitory concentration (MIC) in vitro The MIC of Corramycin was evaluated following the Clinical & Laboratory Standard Institute (CLSI; https://clsi.org) and EUCAST (https://eucast.org) guidelines. First, inoculi of the bacterial test strains were prepared by culturing isolated colonies in cation-adjusted Müller Hinton broth (CAMHB; 2 g L-1 beef infusion solids, 1.5 g L-1 starch, 17.5 g L-1 casein hydrolysates, final pH 7.4) at 37 °C and 180 rpm for 18 h. Next, Corramycin, which was dissolved in DMSO, was transferred into the first row of a 96-well plate to reach an end concentration of 64 µg mL-1 (in 100 µL total volume). A 1:1 serial dilution in cation-adjusted Mueller Hinton broth (CAMHB) of the test compound was done from the top row to the bottom […]
(§2) the respective test strains were transferred into the wells, reaching a total volume of 100 µL and 5x10^5 colony-forming units (CFU) mL-1. After a 20 to 22 h of incubation, the optical density was evaluated on a microplate reader and the MIC endpoint was determined as the lowest concentration of antibiotic at which there was no visible growth observed. Each MIC experiment was performed in duplicates. Table […]
(§3) (1 picture or pasted object on this page, not shown here)
(§4) 6. Investigation of the cross-resistance of Corramycin to clinically used antibiotics […]
(§5) of the MIC according to the protocol described in the previous section. The MIC of the respective antibiotics against 16 clinical isolate E. coli strains, which were obtained from P. Nordmann’s collection and were classified Carbapenem-resistant, Aminoglycoside-resistant or Quinolone-resistant, was […]
(§6) extended-spectrum β-lactamase; CP: carbapenem; AG: aminoglycoside; QL: quinolone; PRP

Assay [2] deals with E. coli isolate 2 (CTX-M-2). As to the kind of experiment: Cross-resistance MIC assay, clinical isolate. The following applies: E. coli isolate 2, CTX-M-2, resistance ESBL; protocol as section 5 (CAMHB; there µg mL-1); unit not given in Table S5. Also noted: unit not given beside the values. Format: cell-based. How it is done: as §1, §2, §3, §4, §5, §6
Assay [3] concerns E. coli isolate 5 (TEM-3). Format: cell-based. Set-up: unit not given beside the values. The following applies: E. coli isolate 5, TEM-3, resistance ESBL; protocol as section 5 (CAMHB; there µg mL-1); unit not given in Table S5. How it is done:
as §1, §2, §3, §4, §5, §6

Assay [4] relates to E. coli isolate 1 (CTX-M-1). The assay can be described thus: Cross-resistance MIC assay, clinical isolate. Also noted: unit not given beside the values. The following applies: E. coli isolate 1, CTX-M-1, resistance ESBL; protocol as section 5 (CAMHB; there µg mL-1); unit not given in Table S5.
Assay [5] concerns E. coli isolate 14 (qepA). The assay can be described thus: Cross-resistance MIC assay, clinical isolate. Set-up: unit not given beside the values. The note with it: resistance QL, protocol as section 5 (CAMHB; there µg mL-1), unit not given in Table S5.
In assay [6] the test system is E. coli isolate 15 (qnrA1). The assay can be described thus: Cross-resistance MIC assay, clinical isolate. Set-up: unit not given beside the values. The following applies: E. coli isolate 15, qnrA1, resistance QL; protocol as section 5 (CAMHB; there µg mL-1); unit not given in Table S5.
Assay [7] deals with E. coli isolate 9 (OXA-48). The assay can be described thus: Cross-resistance MIC assay, clinical isolate. Set-up: unit not given beside the values. The note with it: E. coli isolate 9, OXA-48, resistance ESBL-CP; protocol as section 5 (CAMHB; there µg mL-1); unit not given in Table S5.
Assay [8] has as its system E. coli isolate 16 (QnrS1). As to the kind of experiment: Cross-resistance MIC assay, clinical isolate. Set-up: unit not given beside the values. The note with it: E. coli isolate 16, QnrS1, resistance QL; protocol as section 5 (CAMHB; there µg mL-1); unit not given in Table S5.
Assay [9] relates to E. coli isolate 8 (KPC-2+TEM-1+OXA-9). As to the kind of experiment: Cross-resistance MIC assay, clinical isolate. Also noted: unit not given beside the values. The note with it: E. coli isolate 8, KPC-2+TEM-1+OXA-9, resistance ESBL-CP; protocol as section 5 (CAMHB; there µg mL-1); unit not given in Table S5.
In assay [10] the test system is E. coli isolate 12 (ARM-A). As to the kind of experiment: Cross-resistance MIC assay, clinical isolate. The following applies: resistance AG, protocol as section 5 (CAMHB; there µg mL-1), unit not given in Table S5. Set-up: unit not given beside the values.
Assay [11] relates to E. coli isolate 4 (SHV-2a). The assay can be described thus: Cross-resistance MIC assay, clinical isolate. Set-up: unit not given beside the values. The note with it: resistance ESBL, protocol as section 5 (CAMHB; there µg mL-1), unit not given in Table S5.
Assay [12] relates to E. coli isolate 6 (IMP-1). The assay can be described thus: Cross-resistance MIC assay, clinical isolate. Format: cell-based. The note with it: E. coli isolate 6, IMP-1, resistance ESBL-CP; protocol as section 5 (CAMHB; there µg mL-1); unit not given in Table S5. As for the experimental part: as §1, §2, §3, §4, §5, §6
The subject of assay [13] is E. coli isolate 10 (OXA-48+CTX-M-15). As to the kind of experiment: Cross-resistance MIC assay, clinical isolate. Type of assay: cell-based. The note with it: E. coli isolate 10, OXA-48+CTX-M-15, resistance ESBL-CP; protocol as section 5 (CAMHB; there µg mL-1); unit not given in Table S5. How it is done:
as §1, §2, §3, §4, §5, §6

Assay [14] concerns E. coli isolate 11 (RMT-B). As to the kind of experiment: Cross-resistance MIC assay, clinical isolate. Format: cell-based. The following applies: resistance AG, protocol as section 5 (CAMHB; there µg mL-1), unit not given in Table S5. As for the experimental part: as §1, §2, §3, §4, §5, §6
For assay [15], the system named is E. coli isolate 7 (IMP-4). As to the kind of experiment: Cross-resistance MIC assay, clinical isolate. Type of assay: cell-based. The following applies: E. coli isolate 7, IMP-4, resistance ESBL-CP; protocol as section 5 (CAMHB; there µg mL-1); unit not given in Table S5. How it is done: as §1, §2, §3, §4, §5, §6
Assay [16] concerns E. coli isolate 13 (RMT-C). As to the kind of experiment: Cross-resistance MIC assay, clinical isolate. Set-up: unit not given beside the values. The following applies: resistance AG, protocol as section 5 (CAMHB; there µg mL-1), unit not given in Table S5.

Consider `CO/N=C(\C(=O)N[C@@H]1C(=O)N2C(C(=O)O)=C(COC(C)=O)CS[C@H]12)c1csc(N)n1` [Cefotaxim], for which the MIC in assay [1] is 1; in assay [2], 64; in [3], 64; in assay [4] it was more than 64; in assay [5] it was more than 64; in assay [6], 32. The MIC in [7] was more than 64; in [8], more than 64; in assay [9], more than 64; in [10], more than 64; in assay [11], 64; in assay [12], 0.25 µg/mL (≈ 0.549 µM). For the same compound, the MIC in assay [13] was more than 64 µg/mL; in [14] it was more than 64 µg/mL; in assay [15] it was more than 64 µg/mL; in assay [16] it was more than 64.
In the case of `CO[C@@]1(NC(=O)Cc2cccs2)C(=O)N2C(C(=O)O)=C(COC(N)=O)CS[C@@H]21` [Cefoxitin], the MIC is reported as 4 in assay [1]; 4 in assay [2]; 4 in assay [3]; 8 in assay [4]; 8 in [5]; 8 in assay [6]. Besides, the MIC in [7] was found to be 16; in [8], 8; in [9], 64; in assay [10], 8; in [11] it was 4; in assay [12], 16 µg/mL (≈ 37.4 µM). The MIC in assay [13] is 16 µg/mL (≈ 37.4 µM); in assay [14] it was 16 µg/mL (≈ 37.4 µM); in assay [15], more than 64 µg/mL; in assay [16], more than 64.
With `CO[C@H]1/C=C/O[C@@]2(C)Oc3c(C)c(O)c4c(O)c(c(/C=N/N5CCN(C)CC5)c(O)c4c3C2=O)NC(=O)/C(C)=C\C=C\[C@H](C)[C@H](O)[C@@H](C)[C@@H](O)[C@@H](C)[C@H](OC(C)=O)[C@@H]1C` [Rifampicin], the MIC in assay [3] was 16; in assay [6], more than 64; in [7], 64; in [10], more than 64; in assay [11], 16; in assay [12] it was 16 µg/mL (≈ 19.4 µM). Also, the MIC in [13], in [14] and in [15] was 16 µg/mL (≈ 19.4 µM) throughout.
Regarding `CN(C)[C@@H]1C(O)=C(C(N)=O)C(=O)[C@@]2(O)C(O)=C3C(=O)c4c(O)cccc4[C@@](C)(O)[C@H]3C[C@@H]12` [Tetracyclin], the MIC in [2] was found to be 32; in assay [5], 4; in [6] it was 4.
In the case of `NC[C@H]1O[C@H](O[C@H]2[C@H](O)[C@@H](O[C@H]3O[C@H](CO)[C@@H](O)[C@H](N)[C@H]3O)[C@H](N)C[C@@H]2N)[C@H](N)C[C@@H]1O` [Tobramycin], the MIC in assay [1] was determined as 2; in assay [2], 2; in [3] it was 16; in assay [4] it was 2; in assay [5], 0.5; in [6], 32. Also, the MIC in assay [7] is 32; in assay [8], 32; in assay [9] it was 8; in assay [10], more than 64; in assay [11], 32; in assay [12] it was 2 µg/mL (≈ 4.28 µM). Besides, the MIC was 1 µg/mL (≈ 2.14 µM) in assay [13], 1 µg/mL (≈ 2.14 µM) in [14], 16 µg/mL (≈ 34.2 µM) in assay [15] and more than 64 in assay [16].
